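These data come from cells grown in 96-well plates and exposed to compound for 48 hours at five concentrations. Here, GI50 denotes the concentration required for 50% inhibition of growth. The concentration for full growth arrest is given as TGI.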
Tests used:
Test in all cases: growth of human tumour cells (NCI), 48 h
[1] = tested on: OVCAR-5 ovarian
[2] = tested on: MOLT-4 leukemia
[3] = tested on: HOP-62 NSCLC
[4] = tested on: EKVX NSCLC
[5] = tested on: SK-MEL-2 melanoma
[6] = tested on: SK-OV-3 ovarian
[7] = tested on: HCT-116 colon
[8] = tested on: KM12 colon
[9] = tested on: SNB-75 CNS
[10] = tested on: LOX IMVI melanoma
[11] = tested on: CAKI-1 renal
[12] = tested on: HCC-2998 colon
[13] = tested on: A498 renal
[14] = tested on: SF-295 CNS
[15] = tested on: NCI-H23 lung
[16] = tested on: UO-31 renal
[17] = tested on: IGROV1 ovarian
[18] = tested on: HOP-92 NSCLC
[19] = tested on: U251 CNS
[20] = tested on: BT-549 breast
[21] = tested on: CCRF-CEM leukemia
[22] = tested on: UACC-257 melanoma
[23] = tested on: SK-MEL-5 melanoma
[24] = tested on: PC-3 prostate
[25] = tested on: NCI-H522 lung
[26] = tested on: OVCAR-4 ovarian
[27] = tested on: T-47D breast
[28] = tested on: COLO 205 colon
[29] = tested on: NCI-H460 lung
[30] = tested on: SN12C renal
[31] = tested on: SF-268 CNS
[32] = tested on: HCT-15 colon
[33] = tested on: 786-0 renal
[34] = tested on: RPMI-8226 leukemia
[35] = tested on: HL-60(TB) leukemia
[36] = tested on: SK-MEL-28 melanoma
[37] = tested on: K-562 leukemia
[38] = tested on: HS 578T breast
[39] = tested on: SW-620 colon
[40] = tested on: TK-10 renal
[41] = tested on: MCF7 breast
[42] = tested on: SNB-19 CNS
[43] = tested on: MDA-MB-435
[44] = tested on: DU-145 prostate
[45] = tested on: MDA-MB-231 breast
[46] = tested on: OVCAR-8 ovarian
[47] = tested on: M14 melanoma
[48] = tested on: HT29 colon
[49] = tested on: SF-539 CNS
[50] = tested on: OVCAR-3 ovarian
[51] = tested on: MALME-3M melanoma
[52] = tested on: ACHN renal
[53] = tested on: A549 NSCLC
[54] = tested on: NCI/ADR-RES ovarian
[55] = tested on: SR leukemia
[56] = tested on: UACC-62 melanoma

## C=CC[Se]C(=O)Cc1c(C)n(C(=O)c2ccc(Cl)cc2)c2ccc(OC)cc12
[1]
  GI50: 1.72 µM
  TGI: 3.21 µM
[2]
  GI50: 2.87 µM
  TGI: 8.72 µM
[3]
  GI50: 0.435 µM
  TGI: 2.93 µM
[4]
  GI50: 1.73 µM
  TGI: 3.55 µM
[5]
  GI50: 1.94 µM
  TGI: 4.14 µM
[6]
  GI50: 1.63 µM
  TGI: 3.1 µM
[7]
  GI50: 1.76 µM
  TGI: 3.57 µM
[8]
  GI50: 1.53 µM
  TGI: 3.42 µM
[9]
  GI50: 1.48 µM
  TGI: 2.81 µM
[10]
  GI50: 1.74 µM
  TGI: 3.34 µM
[11]
  GI50: 1.66 µM
  TGI: 3.05 µM
[12]
  GI50: 1.64 µM
  TGI: 3.2 µM
[13]
  GI50: 1.52 µM
  TGI: 4.25 µM
[14]
  GI50: 0.334 µM
  TGI: 1.45 µM
[15]
  GI50: 1.91 µM
  TGI: 3.87 µM
[16]
  GI50: 1.54 µM
  TGI: 2.88 µM
[17]
  GI50: 1.88 µM
  TGI: 3.75 µM
[18]
  GI50: 1.85 µM
  TGI: 4.09 µM
[19]
  GI50: 1.1 µM
  TGI: 2.73 µM
[20]
  GI50: 1.59 µM
  TGI: 3.01 µM
[21]
  GI50: 2.58 µM
  TGI: 7.64 µM
[22]
  GI50: 2.02 µM
  TGI: 4.64 µM
[23]
  GI50: 1.73 µM
  TGI: 3.13 µM
[24]
  GI50: 1.26 µM
  TGI: 2.8 µM
[25]
  GI50: 1.97 µM
  TGI: 4.63 µM
[26]
  GI50: 1.69 µM
  TGI: 3.07 µM
[27]
  GI50: 2.29 µM
  TGI: 5.7 µM
[28]
  GI50: 2.14 µM
  TGI: 4.38 µM
[29]
  GI50: 0.491 µM
  TGI: 3.19 µM
[30]
  GI50: 1.68 µM
  TGI: 3.05 µM
[31]
  GI50: 2.23 µM
  TGI: 5.7 µM
[32]
  GI50: 1.84 µM
  TGI: 3.87 µM
[33]
  GI50: 1.73 µM
  TGI: 3.19 µM
[34]
  GI50: 2.28 µM
  TGI: 5.86 µM
[35]
  GI50: 2.26 µM
  TGI: 5.56 µM
[36]
  GI50: 1.69 µM
  TGI: 3.12 µM
[37]
  GI50: 3.22 µM
  TGI: 19.2 µM
[38]
  GI50: 2.25 µM
  TGI: 7.33 µM
[39]
  GI50: 1.99 µM
  TGI: 4.42 µM
[40]
  GI50: 1.75 µM
  TGI: 3.19 µM
[41]
  GI50: 1.81 µM
  TGI: 4.17 µM
[42]
  GI50: 0.657 µM
  TGI: 1.99 µM
[43]
  GI50: 2.71 µM
  TGI: 8.44 µM
[44]
  GI50: 1.9 µM
  TGI: 3.75 µM
[45]
  GI50: 1.66 µM
  TGI: 3.21 µM
[46]
  GI50: 1.84 µM
  TGI: 3.68 µM
[47]
  GI50: 1.64 µM
  TGI: 3.16 µM
[48]
  GI50: 3.39 µM
  TGI: > 100 µM
[49]
  GI50: 1.66 µM
  TGI: 3.02 µM
[50]
  GI50: 1.78 µM
  TGI: 3.24 µM
[51]
  GI50: 1.71 µM
  TGI: 3.45 µM
[52]
  GI50: 1.79 µM
  TGI: 3.25 µM
[53]
  GI50: 1.62 µM
  TGI: 6.18 µM
[54]
  GI50: 1.94 µM
  TGI: 3.89 µM
[55]
  GI50: 2.29 µM
  TGI: 8.19 µM
[56]
  GI50: 1.74 µM
  TGI: 3.18 µM

Source: PubChem BioAssay (NCI)
